From patent US11638427B2, “Methods and compositions for altering secondary metabolites in plants” (Impello Biosciences, Inc, priority 2020, dated 2023)

Tests used:
Fusarium ventricosum = assay: MDJ spray on cannabis 'Jack Herer' plants infected with Fusarium ventricosum; type: in vivo
Experimental: To investigate the efficacy of MDJ at inhibiting Fusarium ventricosum, plants of the cannabis variety ‘Jack Herer’ were infected and treated with either 1 mM or 10 mM MDJ. Briefly, after two weeks in vegetative light cycle, ‘Jack Herer’ plants were moved to flowering cycle and sprayed with 1 mM or 10 mM methyl dihydrojasmonate on 4/12/21. After 72 hours (4/15/21) all plants were infected with Fusarium ventricosum cultured on potato dextrose agar. Plants were infected using a fungal pick to inoculate the fungal culture at the stem of the plant. No visual signs of infection were observed after two weeks, so all plants were reinfected using a PDA and liquid culture of F. ventricosum on 4/28/21 and again on 5/14/21. Plants were harvested and hung to dry on 6/11/21 and dry weights recorded on 6/16/21. After harvest, stem tissue was taken from each treatment group and plated onto potato dextrose agar. Fusarium ventricosum was reisolated from each group.

[1] = tested on: Colletotrichum gloeosporioides; assay: Mold growth on jasmonate-infused plates, mold 1 isolated from avocado; type: cell-based; settings: various concentrations in plates
Experimental: MDJ (TCI, CAS No.: 24851-98-7) and CJ were infused into potato dextrose agar (PDA, VWR Cat No.: 90003-494) petri dishes (100×15 mm VWR, Cat No: 25384-094) at concentrations ranging from 1 mM, 4.25 mM, and 10 mM. Each treatment was prepared using a technical grade stock solution of pure chemical (CJ or MDJ) diluted with TWEEN®-20 (VWR, CAS No.: […]). Culturable oyster mushroom and seedling mold served to create fungal mycelial plugs using a sterile 1 mL pipette tip (Eppendorf, Cat No.: 022491458) held upside down. The tips were used to make circle excisions (i.e., fungal plugs) from a mycelial mat grown on PDA with no biochemical infusions. Fungal pugs were then transferred to PDA infused with varying concentrations of CJ or MDJ, and control plates (no CJ or MDJ infusion) to monitor fungal growth at room temperature over time.
Based on the above results in Cannabis spp., additional fungi from various crops was sampled and tested. Plates comprising various concentrations of MDJ or MJ were prepared as described above.

[2] = tested on: marijuana variety Lemon Creamsicle; assay: Foliar spray of CJ or MDJ on high-THC marijuana in greenhouse, cannabinoid analysis; type: in vivo, Cannabis spp.; settings: 7.5 mM foliar spray every 14 days, four treatments
Experimental: Applicant's previous experiments investigated the effects of jasmonate-type elicitors MeJA, MDJ, and CJ on hemp (high fiber) and high-CBD, (low-THC) varieties of Cannabis. […] Here, the effects of MDJ and CJ application on a high-THC variety in a controlled environment was investigated. High-THC, low-CBD marijuana variety “Lemon Creamsicle” (LC), was grown in a greenhouse setting. LC was used as a plant model due to its historically consistent metabolite profile in the greenhouse environment, making it a stable, known, and reliable variety.
A four-block plant trial was implemented with a population of N=12 plants and treatment group sizes of n=4. The treatment and control groups were defined as follows: Control=water+0.1% TWEEN®-20 aqueous foliar spray, Treatment 1=[7.5 mM] CJ+0.1% TWEEN®-20 aqueous foliar spray, Treatment 2=[7.5 mM] MDJ+0.1% TWEEN®-20 aqueous foliar spray. A standardized concentration of [7.5 mM] for both CJ and MDJ applications was chosen due to its performance in Applicant's past research. All treatment solutions were prepared the day of the application in equal volumes from pre-measured quantities of the stock materials to ensure consistency, i.e., appropriate volumes of CJ or MDJ were combined with appropriate volumes of TWEEN®-20 for each experimental treatment, stored in a sealed centrifuge tube, and diluted in the appropriate amount of water immediately prior to application. Separate sprayers were used for each treatment and control sprays to avoid cross-contamination.
All plants in the trial were produced as asexual clone stock taken from the same mother plant at the same time to ensure homogeneity. All plants were rooted and grown in accordance with the production practices typical to this greenhouse operator prior to plant selection for the experiment. Due to the layout of the cultivation system, which features immovable hydroponic “pots” that house the plant throughout the entire flowering (i.e., reproductive) phase, all plants included in the experiment were selected from a set section of the greenhouse after final transplant into the hydroponic system and grouped in a complete randomized block design accordingly.
After defining the plants to include in the experiment, which were organized in two (2) rows of six (6) plants side-by-side in the hydroponic system, the experimental blocks were defined as groups of three plants, and a research randomizer tool (randomizer.org) was used to generate a randomized arrangement of plants in each group. Using a blocked design in this setting helped account for the immovable nature of the plants and the slight, if any, environmental differences (like natural sunlight, shading from other plants, and corner/edge effect) that existed in the small experimental area. Blocking the experimental arrangement also allowed for improved statistical analysis and resolution considering the small sample size and close proximity of the experimental plants.
After labelling each plant in the experiment with the appropriate group label (Control, T1 [CJ], or T2 [MDJ]), the plants were allowed to grow normally between treatment applications, which were performed every 14 days for a total of four (4) treatments throughout the flowering cycle, which lasted approximately eight (8) weeks. The first treatment occurred seven (7) days after the onset of the flowering cycle, which was dictated by day-length control. Care was taken with each treatment application to minimize overspray onto non-target neighboring plants, and physical barriers were temporarily installed between plants during treatment sprays to aid in this effort. These barriers were removed following treatment sprays when the foliage was no longer visibly wet from the treatment and/or control foliar sprays. […]

pineapples = assay: Fruit MDJ spray till drip, 2 weeks observation; type: in vivo
Experimental: For fruit MDJ dips, all fruits were purchased from a local market as certified organic on 4/13/2021. Before any treatments, all fruits were submerged in boiling water to melt off any non-natural waxy coating then dried with a washcloth. Once fruits were clean and dry, they were submerged in varying concentrations of methyl dihydrojasmonate solutions. Each solution was prepared from a 1M MDJ Tween 20 stock solution diluted with RO water. 500 ml of each solution was prepared and reused for the different fruits. Each fruit was submerged for 20 seconds and then left to dry on a paper towel. After the fruits were dry the paper towels were removed and fruits left on the lab bench at room temperature grouped by treatment but not touching and monitored for visual differences for 2 weeks. The pineapple was the only fruit that was not fully submerged but instead sprayed till drip with the varying concentration of MDJ/Tween 20 solution. Then left to dry and monitored the same as the other fruits.
Treatments and Sample Sizes:
Control, water—4 lemons, 2 oranges, 1 pineapple, 1 mango, 4 strawberries, 2 grapes (˜10 grapes/bundle), 2 oranges, 4 avocados […]
Qualitative observations like color changes, firmness, mold appearance were monitored and at the end of the two weeks all fruits were cut in half to record and further observations. Penetrometer readings were recorded in the last week of observations.

## CCCCCC1C(=O)CCC1CC(=O)OC (stereo not shown) [MDJ, methyl dihydrojasmonate]
Fusarium ventricosum; 1 mM and 10 mM spray
  flowers compared to the control: larger flowers
  leaves compared to the control: more yellow, wilting leaves
Fusarium ventricosum; 1 mM and 10 mM spray 72 hours before infection
  plant biomass (dry weight) compared to the control group: prevention in biomass reduction
[1]
  growth of mold isolated from avocado (mold 1): effective at preventing the growth
[2]
  CBGA average relative percent increase compared to the Control group: 15.91%
  THCA average relative percent increase compared to the Control group: 6.88%
  Total Cannabinoids average relative percent increase compared to the Control group: 6.06%
  Total THC average relative percent increase compared to the Control group: 5.92%
pineapples; spray till drip 20 mM, control had the greenest crown, followed by 5 mM
  crown appearance: most dried out crown
pineapples; spray till drip, control, 5 mM and 20 mM groups, one pineapple per group
  mold at the base of the pineapple: showed some mold
